Read-outs that look alike come from different tables or passages of the source.
Legend:
adult female rats = assay: fertility of adult female rats treated before mating; format: in vivo; conditions: 25 mcg/kg b.w./day per os for 10 days before mating
pregnant rats = assay: gestation of treated pregnant rats; format: in vivo; conditions: 25 mcg/kg b.w./day per os, control rats had normal delivery
mice = conditions: oral route, cited from earlier work
rats = conditions: oral route, cited from earlier work
prolactin incretion = assay: inhibiting action on prolactin incretion after a single oral dose; format: in vivo; conditions: single oral dose of 100 mcg/kg b.w., female rats, time after treatment
Description: At a single oral dose of 100 micrograms per kg body weight (100 mcg/kg b.w.) in female rats, the inhibiting action on the prolactin incretion remains remarkably high more than 72 hours after treatment.

young female rats = assay: onset of sexual maturity in young female rats at impuberal stage; format: in vivo; conditions: 25 mcg/kg body weight/day per os
[1] = tested on: adult female rats (Sprague Dawley); assay: pup weight and starvation during lactation of treated mother rats; format: in vivo
Description: 15 adult female rats (Sprague Dawley) at their second delivery were randomly divided into 3 groups of 5 animals each. One group served as control, the other two groups were treated with different dosages of cabergoline: animals of the former group received it at the dose of 25 mcg/kg b.w./day; animals of the latter one received it at the dose of 100 mcg/kg b.w./day, starting from the day following the delivery.
Cabergoline was administered with a pellet of standard feed for breeding rats (Altromin MT@ of the firm Rieper, Bolzano). After complete consumption of the medicated pellet, food and water were made available "ad libitum".
At the dose of 100 mcg/kg b.w./day 100% of pups starved already within the first week of lactation (see Table 1).

In the case of `C=CCN1C[C@H](C(=O)N(CCCN(C)C)C(=O)NCC)C[C@@H]2c3cccc4[nH]cc(c34)C[C@H]21` [cabergoline, 1-ethyl-3-(3'-dimethylaminopropyl)-3-(6'-allylergoline-8'β-carbonyl)-urea], the fertility (adult female rats) is listed as “completely inhibited”, the gestation (pregnant rats) is listed as “interrupted their gestation after about ten days” and the “LD50 (Lethal Dose 50)” value (mice; female mice) is listed as 200 mg/kg b.w. For the same molecule, the “LD50 (Lethal Dose 50)” value (mice; male mice) was 350 mg/kg b.w, the LD50 (rats; female rats (second value of 'respectively')) was 350 mg/kg b.w and the LD50 (rats; male rats (first value of 'respectively')) was 400 mg/kg b.w. The “time for which the inhibiting action on the prolactin incretion remains remarkably high” value (prolactin incretion) was “more than 72 hours”, the “onset of the sexual maturity” value (young female rats) was “remarkably delayed” and the “Pups mean weight (in grams) at lactation days 7th” value ([1]; 25 mcg/kg b.w./day to the mother, 7th day of lactation, mean ± SD) was 7.9 ±1.6 grams. The “Pups mean weight (in grams) at lactation days 14th” value ([1]; 25 mcg/kg b.w./day to the mother, 14th day of lactation, mean ± SD) was 10.5 ±0.5 grams, the dead pups ([1]; 25 mcg/kg b.w./day to the mother, 14th day of lactation, of 63 pups) was 40 and the “Pups mean weight (in grams) at lactation days 21st” value ([1]; 25 mcg/kg b.w./day to the mother, 21st day of lactation, mean ± SD) was 14.7 ±0.7 grams. For the same molecule, the “body weight increase of the pups” value ([1]; 25 mcg/kg b.w./day to the mother, at the 7th, 14th and 21st day of lactation) was “remarkably reduced”, the pups starved ([1]; 25 mcg/kg b.w./day to the mother, within the second week of lactation) was “about 60%” and the dead pups ([1]; 100 mcg/kg b.w./day to the mother, 7th day of lactation, of 65 pups) was “- (65 dead)”. The pups starved ([1]; 100 mcg/kg b.w./day to the mother, within the first week of lactation) was 100%.
